Converted amounts (≈) assume the structure as drawn.
How the values were obtained:
[1] = Toxicity (mice, 24 hour values); settings: mouse, in vivo
Procedure: TOXICITY (mice, 24 hour values)

[2] = test system: Proteus mirabilis; assay: Activity in vivo: survival of mice infected intraperitoneally with Proteus mirabilis; settings: sc, 96 h; mice infected i.p. with Proteus mirabilis; compound s.c. one hour after infection; survival on 4th day; by interpolation; read-out: CD50 (dosage at which 50% of the mice survive)
Procedure: Groups of 10 mice are infected intraperitoneally with an aqueous suspension of Proteus mirabilis. One hour after the infection the test compound is administered subcutaneously. The number of surviving mice is determined on the 4th day. Various dosages of test compound are administered and the dosage at which 50% of the mice survice (CD50, mg/kg) is determined by interpolation.

[3] = test system: Proteus vulgaris; assay: Activity in vitro: Minimum Inhibitory Concentration; type: cell-based
Description: (§1) Activity in vitro: Minimum Inhibitory Concentration (μg/ml)

[4] = test system: Escherichia coli; assay: as above; type: cell-based
Description: as §1

[5] = test system: Proteus mirabilis; assay: as above; type: cell-based
Description: as §1

[6] = test system: Proteus rettgeri; assay: as above; type: cell-based; settings: Providencia rettgeri
Description: as §1

[7] = test system: Staphylococcus aureus ATCC 6538; assay: as above; type: cell-based; settings: ATCC6538
Description: as §1

[8] = test system: Staphylococcus aureus Penicillin-resistant strain; assay: as above; type: cell-based
Description: as §1

[9] = test system: Klebsiella pneumoniae; assay: as above; type: cell-based
Description: as §1

[10] = test system: Haemophilus influenzae; assay: as above; type: cell-based
Description: as §1

[11] = Haemophilus influenzae strain 1
[12] = Haemophilus influenzae strain 2
[13] = Haemophilus influenzae strain 3
[14] = Haemophilus influenzae strain 4
[15] = Haemophilus influenzae strain 5
[16] = Haemophilus influenzae strain 6
[17] = Haemophilus influenzae strain 7

Structure (SMILES)	LD50 at 24 h ([1]; iv, mice, 24 hour values) [mg/kg]	ED50 [2] [mg/kg]	MIC [3] [µg/mL]	MIC ([4]; Escherichia coli strain 1) [µg/mL]	MIC ([4]; Escherichia coli strain 2) [µg/mL]	MIC ([5]; Proteus mirabilis strain 1) [µg/mL]	MIC ([5]; Proteus mirabilis strain 2) [µg/mL]	MIC [6] [µg/mL]	MIC [7] [µg/mL]	MIC [8] [µg/mL]	MIC [9] [µg/mL]	MIC [10, 11] [µg/mL]	MIC [10, 12] [µg/mL]	MIC [10, 13] [µg/mL]	MIC [10, 14] [µg/mL]	MIC [10, 15] [µg/mL]	MIC [10, 16] [µg/mL]	MIC [10, 17] [µg/mL]	other results
CON=C(C(=O)N[C@@H]1C(=O)N2C(C(=O)O)=C(CSc3nc(=O)c(=O)[nH]n3C)CS[C@H]12)c1ccco1 [Compound A, (7R)-7-[2-(2-furyl)-2-(methoxyimino)acetamido]-3-[[(1,2,5,6-tetrahydro-2-methyl-5,6-dioxo-as-triazin-3-yl)thio]methyl]-3-cephem-4-carboxylic acid]	500 to 1000	0.09	5 (≈ 9.57 µM)	0.63 (≈ 1.21 µM)	40 (≈ 76.6 µM)	2.5 (≈ 4.78 µM)	5 (≈ 9.57 µM)	0.63 (≈ 1.21 µM)	2.5 (≈ 4.78 µM)	5 (≈ 9.57 µM)	10 (≈ 19.1 µM)	1.2 (≈ 2.3 µM)	0.16 (≈ 0.306 µM)	0.16 (≈ 0.306 µM)	0.16 (≈ 0.306 µM)	0.08 (≈ 0.153 µM)	0.16 (≈ 0.306 µM)	0.08 (≈ 0.153 µM)	LD50 at 24 h ([1]; po, mice, 24 hour values): > 5000 mg/kg; LD50 at 24 h ([1]; sc, mice, 24 hour values): > 4000 mg/kg
CON=C(C(=O)N[C@@H]1C(=O)N2C(C(=O)O)=C(CSc3nc(=O)c(=O)[nH]n3C)CS[C@H]12)c1cccs1 [Compound E]	–	1.15	10 (≈ 18.6 µM)	2.5 (≈ 4.64 µM)	20 (≈ 37.1 µM)	10 (≈ 18.6 µM)	20 (≈ 37.1 µM)	2.5 (≈ 4.64 µM)	2.5 (≈ 4.64 µM)	2.5 (≈ 4.64 µM)	40 (≈ 74.3 µM)	2.5 (≈ 4.64 µM)	0.16 (≈ 0.297 µM)	0.16 (≈ 0.297 µM)	0.16 (≈ 0.297 µM)	0.08 (≈ 0.149 µM)	0.08 (≈ 0.149 µM)	0.08 (≈ 0.149 µM)	LD50 at 24 h ([1]; iv): 2000 to 4000 mg/kg
CON=C(C(=O)N[C@@H]1C(=O)N2C(C(=O)O)=C(CSc3ccn(N)c(=O)n3)CS[C@H]12)c1ccco1 [Compound B, (7R)-7-[2-(2-furyl)-2-(methoxyimino)acetamido]-3-[[(1-amino-1,2-dihydro-2-oxo-4-pyrimidinyl)thio]-methyl]-3-cephem-4-carboxylic acid]	1000 to 2000	3	40 (≈ 79 µM)	2.5 (≈ 4.94 µM)	20 (≈ 39.5 µM)	10 (≈ 19.7 µM)	40 (≈ 79 µM)	2.5 (≈ 4.94 µM)	0.16 (≈ 0.316 µM)	1.2 (≈ 2.37 µM)	20 (≈ 39.5 µM)	2.5 (≈ 4.94 µM)	0.63 (≈ 1.24 µM)	0.63 (≈ 1.24 µM)	0.31 (≈ 0.612 µM)	0.31 (≈ 0.612 µM)	0.31 (≈ 0.612 µM)	0.31 (≈ 0.612 µM)	–
CON=C(C(=O)N[C@@H]1C(=O)N2C(C(=O)O)=C(CSc3nc(=O)c(=O)[nH]n3C)CS[C@H]12)c1ccccc1 [Compound C, (7R)-7-[2-(phenyl)-2-(methoxyimino)acetamido]-3-[[(1,2,5,6-tetrahydro-2-methyl-5,6-dioxo-as-triazin-3-yl)thio]methyl]-3-cephem-4-carboxylic acid]	1000 to 2000	0.6	10 (≈ 18.8 µM)	1.2 (≈ 2.25 µM)	10 (≈ 18.8 µM)	10 (≈ 18.8 µM)	20 (≈ 37.6 µM)	0.63 (≈ 1.18 µM)	2.5 (≈ 4.69 µM)	2.5 (≈ 4.69 µM)	20 (≈ 37.6 µM)	2.5 (≈ 4.69 µM)	0.16 (≈ 0.3 µM)	0.16 (≈ 0.3 µM)	0.16 (≈ 0.3 µM)	0.08 (≈ 0.15 µM)	0.08 (≈ 0.15 µM)	0.08 (≈ 0.15 µM)	–

Reference: patent publication US4178443A, “Derivatives of 7 [-substituted oxyimins acetamido] cephalosporins” (Hoffmann-La Roche Inc., priority 1977, dated 1979)
